These results are taken from US6410515B1, “Peptide, a method for its preparation and a pharmaceutical composition containing the peptide” (Immunotech Developments Inc., priority 1995, dated 2002).

One test deals with (CBA×C57B1)F1 mice. The experiment in a line: Chronic graft versus host reaction (GVHR). The class given is in vivo. To be noted: for Mouse weight: iDD 10 μg/kg/injection. The protocol: The effect of the peptide on a chronic “graft versus host reaction ” (GVHR) was studied, using the mode l described by Bundic et al. (Exp. Immunol. 1995, 99, p.467). Chronic GVHR was induced in hybrid non-irradiated animals by injecting them twice with large amounts (100 mln) of spleen cells of one of the parents.
Recipients were (CBA×C57B1)F1 mice, and donors of spleen cells were mice of the strain C57B1. The preparation iDD was administered in the same dose (10 μg/kg/injection) as in the tests on transplantation of allogenic bone marrow. Th e five-day treatment course began 24 hours after the first injection of spleen cells and lasted three weeks. Control group mice received Medium 199 in the same amount and at the same time as test mice received the peptide. Each group consisted of 15 animals.
Indicators of the degree of GVHR development were animal weight and splenomegaly (as measured by the increase in recipient's spleen weight on day 21). The effectiveness of the preparation was assessed by splenomegaly suppression expressed in % to control (splenomegaly in the control group was taken for […]). The interval between the first and the second injections of spleen cells was 7 days.
On day 21, a sharp increase in weight was recorded in 70% of control mice and 55% of test mice.

For test [1], the system named is mixed lymphocyte culture (MLC). Description: Mixed lymphocyte culture (MLC) proliferation. The class given is cell-based, mice. As to the method:
The influence of the peptides of the invention on the proliferation of a mixed lymphocyte culture (MLC) was studied. The MLC experimental system is an in vitro analogue of the GVHD reaction.
Donor spleen cells from C57B1 mice ([…]) were injected into recipient (CBA×C57B1) F1 mice. Bone marrow was removed from the recipient and cultured for 4 days. The cultured cells were separated into 3 test groups, one group was treated with iDD, one with the L-peptide H-Ile-Glu-Trp-OH and one was a control. Each test peptide was added in various concentrations. Each determination was done in triplicate. ^3H-thymidine was added to each culture for 16 hours and the index of the proliferation of the cells was calculated.

Turning to H-D-iGlu-D-Trp-OH [iDD], the Survival rate in the test with (CBA×C57B1)F1 mice (21 days, control 80%) is listed as 100%. Moreover, the “Weight loss throughout the experiment” value in the test with (CBA×C57B1)F1 mice (21 days, control group weight loss 3 g) is on record as “practically no weight loss”. Also, the “Splenomegaly suppression, %” value in the test on (CBA×C57B1)F1 mice (day 21, relative to control) is on record as 26%. Moreover, the Splenomegaly in the test on (CBA×C57B1)F1 mice (day 21, control 12,6 ± 1,2, intact 3,4 ± 0,3) was 10,2 ± 1,0 mg spleen per mg body weight. The “Mice with sharp increase in weight on day 21” value in the test on (CBA×C57B1)F1 mice (day 21, control 70%) stood at 55%. The Mouse weight with (CBA×C57B1)F1 mice (day 0 after the first injection of spleen cells, control 22,3 ± 0,9) is 22,6 ± 0,7 g; with (CBA×C57B1)F1 mice (day 7, control 21,7 ± 0,8), 25,0 ± 0,6 g; with (CBA×C57B1)F1 mice (day 14, control 18,3 ± 0,9) it was 23,3 ± 1,0 g; in the test with (CBA×C57B1)F1 mice (day 21, control 19,3 ± 1,1), 22,7 ± 0,9 g. Further, in test [1] (both peptides in equal concentrations), the “Effect on MLC when H-Ile-Glu-Trp-OH and iDD added in equal concentrations” value is on record as “the effect of iDD was predominant”. Further, the “Depression of the proliferation MLC” value in test [1] (concentrations of 10 and 20 μg/ml, FIG. 1) is reported as about 50%.
